Data from PubChem BioAssay AID1949 (Southern Research Institute, 2009).
In brackets after ≈: the same amount, converted by molar mass. Records with an inconclusive call do not appear. Activity calls are given as the source filed them. The rule behind the calls is not given here.

system: M. tuberculosis H37Rv growth inhibition; assay: Confirmatory growth inhibition assay against Mycobacterium tuberculosis H37Rv, potency (AID 1949);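 note: bacteria grown 7 days with compound before Alamar blue readout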

| Compound | IC50 |
| --- | --- |
| CCCC(=O)N1CCN(c2ccc(NC(=O)c3cc4ccccc4o3)cc2Cl)CC1 | 33.7 µg/mL (≈ 79.1 µM) |
| Cc1ccc(-c2csc(Nc3ccc(S(N)(=O)=O)cc3)n2)cc1 | 2.52 µg/mL (≈ 7.29 µM) |
| CCOc1cc(CNC23CC4CC(CC(C4)C2)C3)ccc1OCc1cccs1 | 0.82 µg/mL (≈ 2.06 µM) |
| CSc1nsc(SCC(=O)N2CCc3ccccc32)n1 | 12 µg/mL (≈ 37 µM) |
| C/C(=N/Nc1nc(C)c(C)s1)c1ccc(Br)cc1 | 0.59 µg/mL (≈ 1.82 µM) |
| C=CCn1c(Sc2ccc(C(F)(F)F)cc2[N+](=O)[O-])nnc1-c1ccccc1Cl | 0.19 µg/mL (≈ 0.431 µM) |
| Cc1cc(C)cc(COc2ccc3c(C)c(CCC(=O)O)c(=O)oc3c2C)c1 | 0.32 µg/mL (≈ 0.841 µM) |
| O=C(CCN1C(=O)c2ccccc2C1=O)Oc1cccc2cccnc12 | 2.78 µg/mL (≈ 8.03 µM) |
| CCOC(=O)c1cccc(NC(=O)C(Cl)Cl)c1 | 3.07 µg/mL (≈ 11.1 µM) |
| O=C(Nc1nc2ccccc2[nH]1)c1ccc(Br)cc1 | 14.5 µg/mL (≈ 46 µM) |
| Cc1ccc2nc(-c3cccc(NC(=O)c4cccs4)c3)[nH]c2c1 | 7.08 µg/mL (≈ 21.2 µM) |
| CCOC(=O)COc1ccc2c(=O)c(Oc3cccc(OC)c3)coc2c1 | 27.2 µg/mL (≈ 73.4 µM) |
| CC(C)(C)c1ccc(C(=O)NC(=S)Nc2ccc(C(=O)O)cc2)cc1 | 0.64 µg/mL (≈ 1.8 µM) |
| Cc1cc(OC(=O)C2CC2)c2c3c(c(=O)oc2c1)CCCC3 | 1.44 µg/mL (≈ 4.83 µM) |
| c1ccc(CNc2nc(N3CCN(Cc4ccccc4)CC3)nc3ccccc23)cc1 | 1.5 µg/mL (≈ 3.66 µM) |
| CN1CCN(c2ccc(NC(=O)c3ccc(Cl)c(Cl)c3)cc2)CC1 | > 50 µg/mL (inactive) |
| Cc1oc2ccc(OCC(=O)OCc3ccccc3)cc2c1C(=O)OC(C)C | 9.08 µg/mL (≈ 23.7 µM) |
| O=[N+]([O-])c1ccccc1C1Nc2ccc(Cl)cc2C2C=CCC21 (stereo not given) | 10.5 µg/mL (≈ 32.3 µM) |
| COc1c2ccoc2nc2c(OC)cccc12 | 1.76 µg/mL (≈ 7.68 µM) |
| O=S(=O)(CCSc1nc2ccccc2o1)c1nc2ccccc2s1 | 11.1 µg/mL (≈ 29.5 µM) |

| Compound | IC50 |
| --- | --- |
| CC1CCc2nc(NC(=S)NCc3ccco3)sc2C1 (stereo not given) | 3.09 µg/mL (≈ 10.1 µM) |
| O=[N+]([O-])/C=C/c1cccn1-c1ccc(Cl)cc1 | 9.66 µg/mL (≈ 38.8 µM) |
| O=C(CSc1nc2ccccc2c(=O)[nH]1)NCc1ccccc1 | 0.28 µg/mL (≈ 0.86 µM) |
| CCOC(=O)C(C)n1cnc2scc(-c3ccc(CC)cc3)c2c1=O (stereo not given) | 3.9 µg/mL (≈ 10.9 µM) |
| Cc1ccc(C(=O)NCCC2=CCCCC2)cc1Br | 3.14 µg/mL (≈ 9.74 µM) |
| CC1(C)Oc2ccc3ccc(=O)oc3c2C(C=O)=C1Cl | 1.03 µg/mL (≈ 3.54 µM) |
| COc1cc(NC(=S)N2CCN(C)CC2)cc(OC)c1 | > 50 µg/mL (inactive) |
| Cn1c(NC(=S)Nc2ccccc2)nc2ccccc21 | 0.35 µg/mL (≈ 1.24 µM) |
| CCc1cc(C(=O)OC)c(NC(=S)NCc2ccc(Cl)c(Cl)c2)s1 | 0.14 µg/mL (≈ 0.347 µM) |
| c1ccc(CNCc2cn(-c3ccccc3)nc2-c2ccncc2)cc1 | 16.5 µg/mL (≈ 48.5 µM) |
| Cc1cc2ncn(CCCOc3ccccc3C)c2cc1C | 4.63 µg/mL (≈ 15.7 µM) |
| Cc1ccc(-c2[nH]c(-c3cc([N+](=O)[O-])ccc3O)nc2-c2ccccc2)cc1 | 5.58 µg/mL (≈ 15 µM) |
| Cc1ccc(-c2csc(-c3ccncc3)n2)cc1C | 1.85 µg/mL (≈ 6.95 µM) |
| COC(=O)Cc1c(C)c2ccc(OCC(=O)c3ccc(Cl)s3)cc2oc1=O | 2.49 µg/mL (≈ 6.12 µM) |
| Brc1ccc(Nc2nc(-c3ccccn3)cs2)cc1 | 0.13 µg/mL (≈ 0.391 µM) |
| CCOc1cccc(N2C(=O)CC(S/C(N)=N/N=C(\C)c3ccc(Cl)s3)C2=O)c1 (stereo not given) | 2.62 µg/mL (≈ 5.81 µM) |
| COC(=O)C(CC(=O)c1ccc(Br)cc1)n1ccnc1 (stereo not given) | 0.7 µg/mL (≈ 2.08 µM) |
| O=C(Nc1cccc(CCc2ccccn2)c1)NC1CCCCC1 | 38.7 µg/mL (≈ 120 µM) |
| CCOc1cc(C(=O)O/N=C(\N)Cc2ccc(Cl)cc2Cl)cc(OCC)c1OCC | 38 µg/mL (≈ 83.5 µM) |
| O=C(Nc1ccccc1Br)c1ccc([N+](=O)[O-])o1 | 1.61 µg/mL (≈ 5.18 µM) |

| Compound | IC50 |
| --- | --- |
| c1ccc2sc(NC3=NCN(Cc4ccc5c(c4)OCO5)CN3)nc2c1 | 1.52 µg/mL (≈ 4.14 µM) |
| N#CC1=C(SCC(=O)Nc2ccccc2C(=O)c2ccccc2)NC(=O)CC1c1ccccc1F (stereo not given) | 3.1 µg/mL (≈ 6.38 µM) |
| Cc1ccc(C(C)(C)C)c(OCCCn2ccnc2)c1 | 3.87 µg/mL (≈ 14.2 µM) |
| O=Cc1cccc(OCC(=O)Nc2cccc(Cl)c2)c1 | 45 µg/mL (≈ 155 µM) |
| CCc1ccccc1NC(=O)c1cc2cc([N+](=O)[O-])cc(OC)c2oc1=O | > 50 µg/mL (inactive) |
| O=C1c2cccc3cccc(c23)C(=O)N1CCN1CCN(CCc2ccccc2)CC1 | 23.8 µg/mL (≈ 57.5 µM) |
| COc1ccc(C(=O)NC(=S)NNC(=O)c2ccc(OC)c(OC)c2)cc1Br | < 0.1 µg/mL |
| CCNc1nc(NCC)nc(SCCOc2ccc(Br)cc2)n1 | 4.24 µg/mL (≈ 10.6 µM) |
| CCOC(=O)Cc1nc2cc(Cl)ccc2o1 | 10.4 µg/mL (≈ 43.5 µM) |
| O=C(CSc1ccccc1)c1ccc([N+](=O)[O-])cc1 | 9.78 µg/mL (≈ 35.8 µM) |
| O=[N+]([O-])c1ccc(NCCNc2nc(N3CCCC3)nc3ccccc23)cc1 | 1.06 µg/mL (≈ 2.8 µM) |
| Cc1cc(Br)c2[nH]c(O)c(N=NC(=O)COc3ccc4ccccc4c3)c2c1 | 12 µg/mL (≈ 27.5 µM) |
| COC(=O)COc1ccc(C2CCCCC2)cc1 | 1.46 µg/mL (≈ 5.88 µM) |
| CN(C)CCC(=O)c1ccc(Br)cc1 | 0.61 µg/mL (≈ 2.38 µM) |
| CCCn1nnc(NC(=O)COc2ccc(C3CCCCC3)cc2)n1 | 0.64 µg/mL (≈ 1.86 µM) |
| COc1cccc(CSc2nc3c(c(-c4ccccc4)c2C#N)CN(C)CC3)c1 | 22.8 µg/mL (≈ 56.9 µM) |
| COc1ccccc1-n1c(=O)oc2ccc(Cl)cc2c1=O | 4.95 µg/mL (≈ 16.3 µM) |
| O=C(NC(=S)N1CCN(C/C=C/c2ccccc2)CC1)c1ccc(Cl)cc1 | 0.39 µg/mL (≈ 0.975 µM) |
| O=C(Nc1nc(-c2ccccc2)c(-c2ccccc2)o1)c1ccc(F)cc1 | < 0.1 µg/mL |
| COC(=O)C(Oc1ccc2c(c1)oc(=O)c1cc(OC)ccc12)c1ccccc1 (stereo not given) | 1.32 µg/mL (≈ 3.38 µM) |
